Test results from patent US5814631A, “Quinazoline derivatives and applications thereof” (Suntory Limited, priority 1995, dated 1998).

These molecules were tested against T1, human heart chymase (Homo sapiens, UniProt P23946) (assay: biochemical). Details: Chymase inhibitive activity (IC50), Ang I substrate, 37° C., 30 min, pH 7.5.
T1 sequence (P23946 22-247): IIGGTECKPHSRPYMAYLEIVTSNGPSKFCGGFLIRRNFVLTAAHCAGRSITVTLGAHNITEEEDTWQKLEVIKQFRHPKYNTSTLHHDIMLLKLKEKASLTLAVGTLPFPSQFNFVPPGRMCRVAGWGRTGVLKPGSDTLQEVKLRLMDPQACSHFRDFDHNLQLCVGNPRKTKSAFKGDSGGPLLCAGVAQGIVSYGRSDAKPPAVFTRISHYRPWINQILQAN
Description: That is, to 10 μl of a 20 mM trisphosphate buffer (pH 7.5) containing 2MKCl were added 10 μl of purified chymase and 5 μl of a dimethylsulfoxide (hereinafter referred to as DMSO) solution of the test sample. The mixture was preincubated at 37° C. for 10 minutes, then 25 μl of a 1 mM Ang I solution was added and the mixture preincubated at 37° C. for 30 minutes. Next, 50 μl of 30% acetic acid was added to stop the enzymatic reaction. At the same time, a blind test was performed by adding, instead of the test sample solution, 5 μl of DMSO and performing the same reaction.
The reacted solution was subjected to high performance liquid chromatography using Develosil ODS-5 (made by Nomura Kagaku, .phi.4.6 mm×150 mm) and developed at a flow rate of 2.0 ml/min in 0.05% TFA by a straight concentration gradient raising the acetonitrile from 0% to 60% over 10 minutes. This was monitored by the absorbance at 210 nm and the peaks identified by comparison with standard samples of Ang I and Ang II. The peak areas were measured by an integrating meter to quantitatively analyze the Ang I and Ang II and calculate the chymase activity.
`O=c1[nH]c2cc(O)ccc2c(=O)n1S(=O)(=O)c1ccc(Cl)cc1` [Example 151] gave an IC50 of 2800 nM. With `CC[n+]1cccc(NC(=O)Cn2c(=O)n(S(=O)(=O)c3ccc(Cl)cc3)c(=O)c3ccc(Cl)cc32)c1` [Example 56, 3-{[7-chloro-3-(4-chlorobenzenesulfonyl)-2,4(1H,3H)-quinazolinedion-1-yl]acetylamino}-N-ethylpyridinium iodide] the IC50 was 31 nM. `O=c1[nH]c2cc(Cl)ccc2c(=O)n1S(=O)(=O)c1ccc[nH]1` [Example 125, 7-chloro-3-(pyrrole-2-sulfonyl)-2,4(1H,3H)-quinazolinedione] showed an IC50 of 29000 nM. In the case of `CC[n+]1cccc(NC(=O)Cn2c(=O)n(S(=O)(=O)c3ccc(C)cc3)c(=O)c3ccc(Cl)cc32)c1` [Example 95, 3-{7-chloro-[3-(4-methylbenzene-sulfonyl)-3-(4-methoxybenzenesulfonyl)-2,4(1H,3H)-quinazolinedion-1-yl]acetylamino}-N-ethylpyridinium iodide], the IC50 is reported as 210 nM. `O=C(Cn1c(=O)n(S(=O)(=O)c2ccc(Cl)cc2)c(=O)c2ccc(Cl)cc21)Nc1ccccn1` [Example 55, [7-chloro-3-(4-chlorobenzenesulfonyl)-2,4(1H,3H)-quinazolinedion-1-yl]-N-(2-pyridyl)acetamide] showed an IC50 of 72 nM. With `O=C(O)CNC(=O)c1cccc(Cn2c(=O)n(S(=O)(=O)c3ccc(Cl)cc3)c(=O)c3ccc(Cl)cc32)c1` [Example 70, 3-(7-chloro-3-(4-chlorobenzenesulfonyl)-2,4(1H,3H)-quinazolinedion-1-yl)methylbenzoylglycine] the IC50 was 230 nM. `O=C(O)CCCOc1ccc(NC(=O)Cn2c(=O)n(S(=O)(=O)c3ccc(Cl)cc3)c(=O)c3ccc(Cl)cc32)cc1` [Example 111, [7-chloro-3-(4-chlorobenzenesulfonyl)-2,4(1H,3H)-quinazolinedion-1-yl]-N-(4-(3-carboxylpropyloxy)phenyl)acetamide] was tested, and the IC50 was 130 nM. In the case of `O=C(Cn1c(=O)n(S(=O)(=O)c2ccc(Cl)cc2)c(=O)c2ccc(Cl)cc21)Nc1ccccc1O` [Example 41, [7-chloro-3-(4-chlorobenzenesulfonyl)-2,4(1H,3H)-quinazolinedion-1-yl]-N-(2-hydroxyphenyl)acetamide], the IC50 is reported as 310 nM. `O=C(Cn1c(=O)n(S(=O)(=O)c2ccc(Cl)cc2)c(=O)c2ccc(Cl)cc21)Nc1cccc(OP(=O)(O)O)c1` [Example 105] showed an IC50 of 25 nM. `O=C(Cn1c(=O)n(S(=O)(=O)c2ccc(Cl)cc2)c(=O)c2ccc(Cl)cc21)Nc1ccncc1` [Example 54, [7-chloro-3-(4-chlorobenzenesulfonyl)-2,4(1H,3H)-quinazolinedion-1-yl]-N-(4-pyridyl)acetamide] showed an IC50 of 34 nM. `O=C(O)c1cccc(Cn2c(=O)n(S(=O)(=O)c3ccc(Cl)cc3)c(=O)c3ccc(Cl)cc32)c1` [Example 66, 1-(3-carboxybenzyl)-7-chloro-3-(4-chlorobenzenesulfonyl)-2,4(1H,3H)-quinazolinedione] was tested, and the IC50 was 240 nM. `O=C(O)CCC(=O)Nc1ccc(Cn2c(=O)n(S(=O)(=O)c3ccc(Cl)cc3)c(=O)c3ccc(Cl)cc32)cc1` [Example 73] was tested, and the IC50 was 2300 nM. Molecule `Nc1ccccc1Cn1c(=O)n(S(=O)(=O)c2ccc(Cl)cc2)c(=O)c2ccc(Cl)cc21` [Example 75, 1-(2-aminobenzyl)-7-chloro-3-(4-chlorobenzenesulfonyl)-2,4(1H,3H)-quinazolinedione] has an IC50 of 180 nM. `N#Cc1cccc(Cn2c(=O)n(S(=O)(=O)c3ccc(Cl)cc3)c(=O)c3ccc(Cl)cc32)c1` [Example 61, 7-chloro-3-(4-chlorobenzenesulfonyl)-1-(3-cyanobenzyl)-2,4(1H,3H)-quinazolinedione] gave an IC50 of 160 nM. `NCc1ccc(NC(=O)Cn2c(=O)n(S(=O)(=O)c3ccc(Cl)cc3)c(=O)c3ccc(Cl)cc32)cc1` [Example 46, [7-chloro-3-(4-chlorobenzenesulfonyl)-2,4(1H,3H)-quinazolinedion-1-yl]-N-(4-aminomethylphenyl)acetamide] showed an IC50 of 320 nM.
